In publication PMC9321231:

Assays:
caspase-3 in A549 cells = assay: Active caspase-3 flow cytometry; assay type: cell-based, human; conditions: A549, 48 h; 10, 20 and 40 µM per method
Method: The rate of cell apoptosis and necrosis was detected using Annexin V-FITC/PI double staining. […] Compound 3e turned out to be a stronger inducer of apoptosis than 3c. […] In turn, compound 3c induced apoptosis only at the concentrations of 10 and 20 µM, and the percentage of cells undergoing apoptosis increased from 6.05 ± 0.17% in the control to 10.14 ± 0.76% and 14.67 ± 0.68%, respectively (Figure 4B). Moreover, compound 3e at a concentration of 5 µM induced apoptosis to a similar level as cisplatin (CDDP) used at a concentration of 4 µM. To identify the mechanism of the 3c- and 3e-induced apoptosis in the A549 cells, the activation of effector caspase-3 was evaluated by flow cytometry. […] To further explore the antiproliferative activity of compounds 3c and 3e, the influence of both compounds on the distribution of cell cycle phases in the A549 cells was analyzed. […]
The fluorescence-activated cell sorting (FACS) technique was employed to analyze the 3c- and 3e-induced cell death, the activation of executive caspase-3, and the cell cycle in the A549 cells. The quantitative analysis of apoptosis and necrosis was performed using an Annexin V-fluorescein isothiocyanate (FITC)/ propidium iodide (PI) apoptosis kit (BD Biosciences, BD Pharmingen™, San Jose, CA, USA) as previously described. […] The results were calculated as a percent of cells with active caspase-3 among all the analyzed cells. […]

[1] = test system: human biphenotypic B myelomonocytic leukemia (MV4-11) cells; assay: Antiproliferative assay (MTT or SRB), MV4-11; assay type: cell-based; conditions: for IC50: Homo sapiens, MV4-11, MV-4-11, read-out: IC50 ± SD, antiproliferative activity; for Calculated Selectivity Index SI: IC50 Balb/3T3 / IC50 MV-4-11
Method: (§1) Cell preparation, an in vitro antiproliferative assay, and MTT and SRB cytotoxic tests were performed according to the literature.

A549 cells = assay: Apoptosis/necrosis assay, Annexin V-FITC/PI flow cytometry; assay type: cell-based, human; conditions: for percentage of A549 cells undergoing apoptosis: 48 h, control 6.05 ± 0.17%; for induction of necrosis: A549, 48 h
Method: The rate of cell apoptosis and necrosis was detected using Annexin V-FITC/PI double staining. […] Compound 3e turned out to be a stronger inducer of apoptosis than 3c. […] In turn, compound 3c induced apoptosis only at the concentrations of 10 and 20 µM, and the percentage of cells undergoing apoptosis increased from 6.05 ± 0.17% in the control to 10.14 ± 0.76% and 14.67 ± 0.68%, respectively (Figure 4B). Moreover, compound 3e at a concentration of 5 µM induced apoptosis to a similar level as cisplatin (CDDP) used at a concentration of 4 µM. To identify the mechanism of the 3c- and 3e-induced apoptosis in the A549 cells, the activation of effector caspase-3 was evaluated by flow cytometry. […] To further explore the antiproliferative activity of compounds 3c and 3e, the influence of both compounds on the distribution of cell cycle phases in the A549 cells was analyzed. […] The G2 checkpoint prevents cells from entering mitosis when DNA is damaged, providing an opportunity for repair and stopping the proliferation of damaged cells. […] Apoptosis is a crucial process involved in the regulation of tumor formation and in the treatment response; therefore, cancer therapy has been linked to activation of the apoptosis signal transduction pathway. Caspase-3, an executioner caspase, plays an important role in apoptosis and becomes a primary target for cancer treatment.
The fluorescence-activated cell sorting (FACS) technique was employed to analyze the 3c- and 3e-induced cell death, the activation of executive caspase-3, and the cell cycle in the A549 cells. The quantitative analysis of apoptosis and necrosis was performed using an Annexin V-fluorescein isothiocyanate (FITC)/ propidium iodide (PI) apoptosis kit (BD Biosciences, BD Pharmingen™, San Jose, CA, USA) as previously described. To determine the active form of caspase-3, the A549 cells were plated into 6-well plates at a density of 6 × 10^5 cells/well. The next day, the growth medium was replaced with a fresh one supplemented with compound 3c or 3e (10, 20, and 40 µM) or the DMSO vehicle (0.1%; control cells). After 48-h incubation, the samples were harvested and the level of active caspase-3 was determined using the phycoerythrin (PE) Active Caspase-3 Apoptosis Kit (BD Pharmingen™) according to the manufacturer’s instructions. The stained cells were analyzed using FACS Calibur, and data were analyzed using Cell Quest Pro Version 6.0 (BD Biosciences, San Jose, CA, USA) for the Macintosh operating system. The results were calculated as a percent of cells with active caspase-3 among all the analyzed cells. The cell cycle analysis was performed by determination of the DNA contents on the basis of PI staining as previously described.
Figure 4 Effect of compounds 3c and 3e and cisplatin (CDDP) on apoptosis induction in the A549 cell line. After the 48-h exposure to the indicated concentrations of the compounds, the cells were stained with annexin (An) V-FITC)/propidium iodide (PI) and examined with flow cytometry. (A) The representative graphs obtained by flow cytometric analysis: dot plots indicate the percentage of An−/PI+ necrotic cells (Q1), An+ /PI+ late apoptotic cells (Q2), An−/PI− viable cells (Q3), and An+ /PI− early apoptotic cells (Q4). (B) Statistical analysis of the apoptotic (early + late apoptosis) and necrotic rate populations after the 3c, 3e, and cisplatin (CDDP) treatment. Data are presented as mean ± SD from three independent experiments; *** p < 0.001 in comparison to the control; one-way ANOVA followed by Dunnett’s post hoc test.

[2] = test system: human breast adenocarcinoma (MDA-MB-231) cells; assay: Antiproliferative assay (MTT or SRB), MDA-MB-231; assay type: cell-based; conditions: for IC50: Homo sapiens, MDA-MB-231, read-out: IC50 ± SD, antiproliferative activity; for Calculated Selectivity Index SI: IC50 Balb/3T3 / IC50 MDA-MB-231
Method: as §1

[3] = molecular target: T1, human neutrophil elastase (HNE) (Homo sapiens, UniProt P08246); assay: Human neutrophil elastase inhibition assay (spectrofluorimetric, MeOSuc-AAPV-AMC substrate)
T1 sequence (P08246 30-267): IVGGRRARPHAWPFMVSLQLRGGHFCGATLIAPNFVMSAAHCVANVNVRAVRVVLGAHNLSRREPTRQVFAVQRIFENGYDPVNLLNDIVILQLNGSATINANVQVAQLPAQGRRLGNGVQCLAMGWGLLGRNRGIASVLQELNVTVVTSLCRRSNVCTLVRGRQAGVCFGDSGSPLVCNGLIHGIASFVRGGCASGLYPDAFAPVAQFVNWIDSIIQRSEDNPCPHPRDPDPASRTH
Method: The inhibition of human neutrophil elastase was carried out by the spectrofluorimetric method using N-methoxysuccinyl-Ala-Ala-Pro-Val-7-amido-4-methylcoumarin (MeOSuc-AAPV-AMC) as substrate.

IC50 [1] [µM] | IC50 [2] [µM] | IC50 [3] [µM] | SMILES | number of cells with active caspase 3 (caspase-3 in A549 cells) | Calculated Selectivity Index SI [1] | percentage of A549 cells undergoing apoptosis (A549 cells; 5 µM) [%] | percentage of A549 cells undergoing apoptosis (A549 cells; 10 µM) [%] | percentage of A549 cells undergoing apoptosis (A549 cells; 20 µM) [%] | induction of necrosis (A549 cells) | Calculated Selectivity Index SI [2]
6.23 ± 0.42 | 6.42 ± 1.7 | 0.035 ± 0.00388 | CCC1(CC)C(=O)N(c2ccc(-c3csc(Nc4ccc(S(N)(=O)=O)cc4)n3)cc2)C1=O [3e, 4-(4-(4-(3,3-Diethyl-2,4-dioxoazetidin-1-yl)phenyl)thiazol-2-ylamino)benzenesulfo-namide] | concentration-dependent increase in the number of cells with active caspase 3 | 1.05 | 8.79 ± 0.50 | 14.45 ± 1.02 | 23.39 ± 0.31 | no induction of necrosis was observed | 1.02
4.59 ± 2.03 | 6.38 ± 0.71 | 0.0382 ± 0.00491 | CCC1(CC)C(=O)N(c2ccc(-c3csc(Nc4cc(OC)c(OC)c(OC)c4)n3)cc2)C1=O [3c, 3,3-Diethyl-1-(4-(2-(3,4,5-trimethoxyphenylamino)thiazol-4-yl)phenyl)azetidine-2,4-dione] | concentration-dependent increase in the number of cells with active caspase 3 | 1.62 |  | 10.14 ± 0.76 | 14.67 ± 0.68 | no induction of necrosis was observed | 1.16
